± gives the expanded uncertainty stated by the source.
What was measured:
[1] = molar heat capacity at constant pressure; conditions: 101.33 kPa, Small (less than 1 g) adiabatic calorimetry
[2] = Molar enthalpy of transition or fusion; conditions: Adiabatic calorimetry

NC12CC3CC(CC(C3)C1)C2 [tricyclo(3.3.1.1:3,7)decan-1-amine]
[1]
Conditions	molar heat capacity at constant pressure [J/K/mol]
5 K, Crystal 3	0.4688 ± 0.025
10 K, Crystal 3	3.505 ± 0.062
15 K, Crystal 3	9.163 ± 0.12
20 K, Crystal 3	15.65 ± 0.17
25 K, Crystal 3	21.75 ± 0.19
30 K, Crystal 3	26.96 ± 0.2
35 K, Crystal 3	31.21 ± 0.22
40 K, Crystal 3	34.7 ± 0.24
45 K, Crystal 3	37.68 ± 0.26
50 K, Crystal 3	40.29 ± 0.27
60 K, Crystal 3	44.98 ± 0.29
70 K, Crystal 3	49.57 ± 0.32
80 K, Crystal 3	54.53 ± 0.34
90 K, Crystal 3	59.87 ± 0.39
100 K, Crystal 3	65.39 ± 0.42
110 K, Crystal 3	71.11 ± 0.45
120 K, Crystal 3	77.06 ± 0.47
130 K, Crystal 3	83.31 ± 0.5
140 K, Crystal 3	89.8 ± 0.5
150 K, Crystal 3	96.61 ± 0.58
160 K, Crystal 3	103.8 ± 0.58
170 K, Crystal 3	111.5 ± 0.67
180 K, Crystal 3	119.5 ± 0.67
190 K, Crystal 3	128 ± 0.75
200 K, Crystal 3	136.9 ± 0.75
210 K, Crystal 3	146.4 ± 0.83
220 K, Crystal 3	156.5 ± 0.83
230 K, Crystal 3	167.1 ± 0.92
240 K, Crystal 3	178.3 ± 1
241.4 K, Crystal 2	179.9 ± 1
241.4 K, Crystal 3	179.9 ± 1
250 K, Crystal 2	190.2 ± 1
260 K, Crystal 2	202.7 ± 1.1
270 K, Crystal 2	215.9 ± 1.2
280 K, Crystal 2	230 ± 1.2
284.6 K, Crystal 1	263.6 ± 1.4
284.6 K, Crystal 2	236.6 ± 1.2
290 K, Crystal 1	264.7 ± 1.4
298.15 K, Crystal 1	266.4 ± 1.4
300 K, Crystal 1	266.8 ± 1.4
310 K, Crystal 1	268.9 ± 1.4
320 K, Crystal 1	271.1 ± 1.4
330 K, Crystal 1	273.1 ± 1.4
340 K, Crystal 1	275.5 ± 1.4
350 K, Crystal 1	278.5 ± 1.4
360 K, Crystal 1	282.1 ± 1.5
370 K, Crystal 1	286.4 ± 1.5

[2]
Conditions	Molar enthalpy of transition or fusion [kJ/mol]
Crystal 2	5.309 ± 0.012
Crystal 3	1.72 ± 0.024
